Where two headings read alike, the source gives them in different places.
What was measured:
Type in all cases: in vivo
[1] = tested on: Plutella xylostella; assay: Plutella xylostella (diamond back moth) artificial diet test; settings: 120 h, read-out: control (mortality and growth inhibition)
Method: Plutella xylostella (Diamond Back Moth):
(§1) 24-well microtiter plates with artificial diet were treated with aqueous test solutions prepared from 10′000 ppm DMSO stock solutions by pipetting. After drying, the plates were infested with L2 larvae (10 to 15 per well). The samples were assessed for mortality and growth inhibition in comparison to untreated samples 5 days after infestation.

[2] = tested on: Spodoptera littoralis; assay: Spodoptera littoralis (Egyptian cotton leaf worm) leaf disc test; settings: foliar, 72 h, application rate 200 ppm, cotton leaf discs sprayed, L1 larvae, 3 days after infestation, read-out: control (at least one of mortality, anti-feedant effect, growth inhibition)
Method: Spodoptera littoralis (Egyptian Cotton Leaf Worm)
Cotton leaf discs were placed on agar in 24-well microtiter plates and sprayed with aqueous test solutions prepared from 10′000 ppm DMSO stock solutions. After drying the leaf discs were infested with five L1 larvae. The samples were assessed for mortality, anti-feedant effect, and growth inhibition in comparison to untreated samples 3 days after infestation. Control of Spodoptera littoralis by a test sample is when at least one of mortality, anti-feedant effect, and growth inhibition is higher than the untreated sample.

[3] = tested on: Diabrotica Balteata; assay: Diabrotica balteata (corn root worm) maize sprout test; settings: 96 h, read-out: control (mortality and growth inhibition)
Method: Diabrotica Balteata, (Corn Root Worm)
as §1, with “Maize sprouts, placed on an agar layer in 24-well” for “24-well”, “plates” for “plates with artificial diet”, “spraying.” for “pipetting.”, “(6” for “(10”, “10” for “15”, “4” for “5”

[4] = tested on: Tetranychus urticae; assay: Tetranychus urticae (two-spotted spider mite) leaf disc test; settings: foliar, 192 h, application rate 200 ppm, bean leaf discs sprayed, 8 days after infestation, read-out: control (mortality on mixed population, mobile stages)
Method: Tetranychus urticae (Two-Spotted Spider Mite):
Bean leaf discs on agar in 24-well microtiter plates were sprayed with aqueous test solutions prepared from 10′000 ppm DMSO stock solutions. After drying the leaf discs were infested with a mite population of mixed ages. The samples were assessed for mortality on mixed population (mobile stages) 8 days after infestation.

[5] = tested on: Euschistus heros; assay: Euschistus heros (neotropical brown stink bug) soybean leaf test; settings: 120 h, read-out: control (mortality and growth inhibition)
Method: Euschistus heros (Neotropical Brown Stink Bug):
Soybean leaves on agar in 24-well microtiter plates were sprayed with aqueous test solutions prepared from 10′000 ppm DMSO stock solutions. After drying the leaves were infested with N2 nymphs. The samples were assessed for mortality and growth inhibition in comparison to untreated samples 5 days after infestation.

[6] = tested on: Thrips tabaci; assay: Thrips tabaci (onion thrips) leaf disc test; settings: foliar, 144 h, read-out: control (mortality)
Method: Thrips tabaci (Onion Thrips):
Sunflower leaf discs were placed on agar in 24-well microtiter plates and sprayed with aqueous test solutions prepared from 10′000 ppm DMSO stock solutions. After drying the leaf discs were infested with a thrips population of mixed ages. The samples were assessed for mortality 6 days after infestation.

[7] = tested on: Myzus persicae; assay: Myzus persicae (green peach aphid) leaf disc test; settings: foliar, 144 h, application rate 200 ppm, sunflower leaf discs sprayed, mixed ages, 6 DAT, read-out: control (mortality)
Method: Myzus persicae (Green Peach Aphid):
Sunflower leaf discs were placed on agar in a 24-well microtiter plate and sprayed with test solutions at an application rate of 200 ppm. After drying, the leaf discs were infested with an aphid population of mixed ages. After an incubation period of 6 DAT, samples were checked for mortality.

[8] = application rate 200 ppm, artificial diet, L2 larvae, 5 days after infestation
[9] = application rate 200 ppm, maize sprouts sprayed, L2 larvae, 4 days after infestation
[10] = application rate 200 ppm, soybean leaves sprayed, N2 nymphs, 5 days after infestation
[11] = application rate 200 ppm, sunflower leaf discs sprayed, mixed ages, 6 days after infestation

Cn1nc(OS(=O)(=O)C(F)(F)C(F)(F)F)c(C(F)(F)F)c1-n1cc(-c2ccc(Cl)c(C(=O)NC3(C#N)CC3)c2)cn1 [Compound 1, [5-[4-[4-chloro-3-[(1-cyanocyclopropyl)carbamoyl]phenyl]pyrazol-1-yl]-1-methyl-4-(trifluoromethyl)pyrazol-3-yl] 1,1,2,2,2-pentafluoroethanesulfonate]
≥ 80%: mortality at 200 ppm [1, 8] | percent control (mortality, anti-feedant effect or growth inhibition) at 200 ppm [2] | mortality at 200 ppm [3, 9] | mortality at 200 ppm [4] | mortality at 200 ppm [5, 10]

CN(C(=O)c1cc(-c2cnn(-c3c(C(F)(F)F)c(OS(=O)(=O)C(F)(F)C(F)(F)C(F)(F)C(F)(F)F)nn3C)c2)ccc1Cl)C1(C#N)CC1 [Compound 6, [5-[4-[4-chloro-3-[(1-cyanocyclopropyl)-methyl-carbamoyl]phenyl]pyrazol-1-yl]-1-methyl-4-(trifluoromethyl)pyrazol-3-yl] 1,1,2,2,3,3,4,4,4-nonafluorobutane-1-sulfonate]
≥ 80%: mortality at 200 ppm [1] | percent control (mortality, anti-feedant effect or growth inhibition) at 200 ppm [2] | mortality at 200 ppm [6] | mortality at 200 ppm [3] | mortality at 200 ppm [5]

Cn1nc(OS(=O)(=O)C(F)(F)C(F)(F)Cl)c(C(F)(F)F)c1-n1cc(-c2ccc(Cl)c(C(=O)NC3(C#N)CC3)c2)cn1 [Compound 8, [5-[4-[4-chloro-3-[(1-cyanocyclopropyl)carbamoyl]phenyl]pyrazol-1-yl]-1-methyl-4-(trifluoromethyl)pyrazol-3-yl] 2-chloro-1,1,2,2-tetrafluoro-ethanesulfonate]
≥ 80%: mortality at 200 ppm [1, 8] | mortality at 200 ppm [7] | percent control (mortality, anti-feedant effect or growth inhibition) at 200 ppm [2] | mortality at 200 ppm [6, 11] | mortality at 200 ppm [3, 9] | mortality at 200 ppm [4]

CCN(C(=O)c1cc(-c2cnn(-c3c(C(F)(F)F)c(OS(=O)(=O)C(F)(F)C(F)(F)Cl)nn3C)c2)ccc1Cl)C1CC1 [Compound 10, [5-[4-[4-chloro-3-[cyclopropyl(ethyl)carbamoyl]phenyl]pyrazol-1-yl]-1-methyl-4-(trifluoromethyl)pyrazol-3-yl] 2-chloro-1,1,2,2-tetrafluoro-ethanesulfonate]
≥ 80%: mortality at 200 ppm [1, 8] | mortality at 200 ppm [7] | percent control (mortality, anti-feedant effect or growth inhibition) at 200 ppm [2] | mortality at 200 ppm [6, 11] | mortality at 200 ppm [3, 9] | mortality at 200 ppm [4]

CN(C(=O)c1cc(-c2cnn(-c3c(C(F)(F)F)c(OS(=O)(=O)C(F)(C(F)(F)F)C(F)(F)F)nn3C)c2)ccc1Cl)C1CC1 [Compound 17, [5-[4-[4-chloro-3-[cyclopropyl(methyl)carbamoyl]phenyl]pyrazol-1-yl]-1-methyl-4-(trifluoromethyl)pyrazol-3-yl] 1,1,1,2,3,3,3-heptafluoropropane-2-sulfonate]
≥ 80%: mortality at 200 ppm [1, 8] | mortality at 200 ppm [7] | percent control (mortality, anti-feedant effect or growth inhibition) at 200 ppm [2] | mortality at 200 ppm [6, 11] | mortality at 200 ppm [3, 9] | mortality at 200 ppm [4]

CN(C(=O)c1cc(-c2cnn(-c3c(C(F)(F)F)c(OS(=O)(=O)C(F)(F)C(F)(F)Cl)nn3C)c2)ccc1Cl)C1(C#N)CC1 [Compound 19, [5-[4-[4-chloro-3-[(1-cyanocyclopropyl)-methyl-carbamoyl]phenyl]pyrazol-1-yl]-1-methyl-4-(trifluoromethyl)pyrazol-3-yl] 2-chloro-1,1,2,2-tetrafluoro-ethanesulfonate]
≥ 80%: mortality at 200 ppm [1, 8] | mortality at 200 ppm [7] | percent control (mortality, anti-feedant effect or growth inhibition) at 200 ppm [2] | mortality at 200 ppm [6, 11] | mortality at 200 ppm [3, 9] | mortality at 200 ppm [4]

CN(C(=O)c1cc(-c2cnn(-c3c(C(F)(F)F)c(OS(=O)(=O)C(F)(C(F)(F)F)C(F)(F)F)nn3C)c2)cnc1Cl)C1CC1 [Compound 22, [5-[4-[6-chloro-5-[cyclopropyl(methyl)carbamoyl]-3-pyridyl]pyrazol-1-yl]-1-methyl-4-(trifluoromethyl)pyrazol-3-yl] 1,1,1,2,3,3,3-heptafluoropropane-2-sulfonate]
≥ 80%: mortality at 200 ppm [1, 8] | mortality at 200 ppm [7] | percent control (mortality, anti-feedant effect or growth inhibition) at 200 ppm [2] | mortality at 200 ppm [6, 11] | mortality at 200 ppm [3, 9] | mortality at 200 ppm [4]

CCN(C(=O)c1cc(-c2cnn(-c3c(C(F)(F)F)c(OS(=O)(=O)C(F)(C(F)(F)F)C(F)(F)F)nn3C)c2)cnc1Cl)C1(C#N)CC1 [Compound 26, [5-[4-[6-chloro-5-[(1-cyanocyclopropyl)-ethyl-carbamoyl]-3-pyridyl]pyrazol-1-yl]-1-methyl-4-(trifluoromethyl)pyrazol-3-yl] 1,1,1,2,3,3,3-heptafluoropropane-2-sulfonate]
≥ 80%: mortality at 200 ppm [1, 8] | mortality at 200 ppm [7] | percent control (mortality, anti-feedant effect or growth inhibition) at 200 ppm [2] | mortality at 200 ppm [6, 11] | mortality at 200 ppm [3, 9] | mortality at 200 ppm [4]

CCN(C(=O)c1cc(-c2cnn(-c3c(C(F)(F)F)c(OS(=O)(=O)C(F)(F)C(F)(F)C(F)(F)C(F)(F)F)nn3C)c2)cnc1Cl)C1(C#N)CC1 [Compound 32, [5-[4-[6-chloro-5-[(1-cyanocyclopropyl)-ethyl-carbamoyl]-3-pyridyl]pyrazol-1-yl]-1-methyl-4-(trifluoromethyl)pyrazol-3-yl] 1,1,2,2,3,3,4,4,4-nonafluorobutane-1-sulfonate]
≥ 80%: mortality at 200 ppm [1] | percent control (mortality, anti-feedant effect or growth inhibition) at 200 ppm [2] | mortality at 200 ppm [6] | mortality at 200 ppm [3] | mortality at 200 ppm [5]

CCOCN(C(=O)c1cc(-c2cnn(-c3c(C(F)(F)F)c(OS(=O)(=O)C(F)(C(F)(F)F)C(F)(F)F)nn3C)c2)ccc1Cl)C1(C#N)CC1 [Compound 47, [5-[4-[4-chloro-3-[(1-cyanocyclopropyl)-(ethoxymethyl)carbamoyl]phenyl]pyrazol-1-yl]-1-methyl-4-(trifluoromethyl)pyrazol-3-yl] 1,1,1,2,3,3,3-heptafluoropropane-2-sulfonate]
≥ 80%: mortality at 200 ppm [1, 8] | mortality at 200 ppm [7] | percent control (mortality, anti-feedant effect or growth inhibition) at 200 ppm [2] | mortality at 200 ppm [6, 11] | mortality at 200 ppm [3, 9] | mortality at 200 ppm [5, 10]

Cn1nc(OS(=O)(=O)C(F)(C(F)(F)F)C(F)(F)F)c(C(F)(F)F)c1-n1cc(-c2ccc(Cl)c(C(=O)NC3(C(F)(F)F)CC3)c2)cn1 [Compound 65, [5-[4-[4-chloro-3-[[1-(trifluoromethyl)cyclopropyl]carbamoyl]phenyl]pyrazol-1-yl]-1-methyl-4-(trifluoromethyl)pyrazol-3-yl] 1,1,1,2,3,3,3-heptafluoropropane-2-sulfonate]
≥ 80%: mortality at 200 ppm [1, 8] | percent control (mortality, anti-feedant effect or growth inhibition) at 200 ppm [2] | mortality at 200 ppm [4] | mortality at 200 ppm [5, 10]

Cn1nc(OS(=O)(=O)C(F)(C(F)(F)F)C(F)(F)F)c(C(F)(F)F)c1-n1cc(-c2ccc(Cl)c(C(=O)NC3(CC#N)CC3)c2)cn1 [Compound 68, [5-[4-[4-chloro-3-[[1-(cyanomethyl)cyclopropyl]carbamoyl]phenyl]pyrazol-1-yl]-1-methyl-4-(trifluoromethyl)pyrazol-3-yl] 1,1,1,2,3,3,3-heptafluoropropane-2-sulfonate]
≥ 80%: mortality at 200 ppm [1, 8] | percent control (mortality, anti-feedant effect or growth inhibition) at 200 ppm [2] | mortality at 200 ppm [4] | mortality at 200 ppm [5, 10]
